Read-outs that look alike come from different tables or passages of the source.
Assays:
RCC4 = test: XTT cell viability assay, RCC4; assay type: cell-based; conditions: Homo sapiens, XTT assay (48 h), standard deviation of 10%, read-out: EC50 (μM) Kidney RCC4
Protocol: (§1) Fifty microliters of sodium 3′-[1-phenylaminocarbonyl)-3,4-tetrazolium]-bis(4-methoxy-6-nitro) benzene sulfonic acid hydrate (XTT) reagent was added to each well. The assay is based on the cleavage of the yellow tetrazolium salt XTT to form an orange formazan dye by metabolically active cells. The absorbance of the formazan product, reflecting cell viability, was measured at 490 nm. Each assay was performed in quadruplicate.
(§2) Compounds #1-#14 have been assayed as potential anti-proliferative agents against a panel of human breast head and neck, and kidney tumor cells and hematological malignancies, selected on the basis of their aggressiveness (e.g. incurable triple-negative breast cancer cells: MDA-MB-231; kidney ccRCC cells: RCC4, A498 and 786-O and 786R; head and neck cancer cells: CAL33, CAL33RR, CAL27, and CAL27RR; acute myeloid cell lines: OCI-AML2, OCI-AML3, MolM13, and MolM14; myelodysplastic cell line: SM1; and chronic myeloid cell line: CML). All these cell lines share as common denominator the expression of CXCR1 and CXCR2. The EC50 values have been measured by a XTT colorimetric assay, and compared to those of SB-225002, used as a reference; the results are listed in Table 1.

K562 = test: XTT cell viability assay, K562; assay type: cell-based, human; conditions: XTT assay (48 h), standard deviation of 10%, read-out: EC50 (μM) CML K562
Protocol: as §1, §2

786-O = test: XTT cell viability assay, 786-O; assay type: cell-based, human; conditions: Homo sapiens, 786-0; XTT assay (48 h); standard deviation of 10%; read-out: EC50 (μM) Kidney 786-O
Protocol: (§3) A, B: Naive (786-O, A), and sunitinib-resistant (786-R, B) 786-O cells, were treated with compound #1 or sunitinib (1 to 10 μM) for 48 hr. Cell viability was measured by XTT assays;
(§4) D, E: 786-O (D), 786-R (E), were treated with 2.5 μM compound #1 or 2.5 μM sunitinib for 24 h to 96 h. The cells metabolism was measured by XTT assay;
as §1, §2

A498 = test: XTT cell viability assay, A498; assay type: cell-based, human; conditions: XTT assay (48 h), standard deviation of 10%, read-out: EC50 (μM) Kidney A498
Protocol: as §1, §2

MolM13 = test: XTT cell viability assay, MolM13; assay type: cell-based, human; conditions: XTT assay (48 h), standard deviation of 10%, read-out: EC50 (μM) AML MolM13
Protocol: as §1, §2

MDA-MB-231 = test: XTT cell viability assay, MDA-MB-231; assay type: cell-based; conditions: Homo sapiens, XTT assay (48 h), standard deviation of 10%, read-out: EC50 (μM) Breast MDA-MB-231
Protocol: as §1, §2

SKM1 = test: XTT cell viability assay, SKM1; assay type: cell-based, human; conditions: XTT assay (48 h), standard deviation of 10%, read-out: EC50 (μM) MDS SKM1
Protocol: as §1, §2

OCI-AML2 = test: XTT cell viability assay, OCI-AML2; assay type: cell-based, human; conditions: XTT assay (48 h), standard deviation of 10%, read-out: EC50 (μM) AML OCI-AML2
Protocol: as §1, §2

MolM14 = test: XTT cell viability assay, MolM14; assay type: cell-based, human; conditions: XTT assay (48 h), standard deviation of 10%, read-out: EC50 (μM) AML MolM14
Protocol: as §1, §2

OCI-AML3 = test: XTT cell viability assay, OCI-AML3; assay type: cell-based, human; conditions: XTT assay (48 h), standard deviation of 10%
Protocol: as §1, §2

CAL27 = test: XTT cell viability assay, CAL27; assay type: cell-based, human; conditions: Homo sapiens, CAL-27, 48 h, XTT assay (48 h); standard deviation of 10%; read-out: EC50 (μM) Head and Neck CAL27
Protocol: (§5) A, B: Naive (Cal27, A), and cisplatine-resistant (Cal27R, B) Cal27 cells, were treated with compound #1 or cisplatine (1 to 10 μM) for 48 hr. Cell viability was measured by XTT assays;
(§6) C, D: Cal27 (C), cal27R (D), were treated with 2.5 μM compound #1, 2.5 μM cisplatin for 24 h to 96 h. The metabolism of cells was measured by XTT assay.
as §1, §2

CAL27RR = test: XTT cell viability assay, CAL27RR (cisplatin-resistant); assay type: cell-based, human; conditions: Homo sapiens, light or radiation study; XTT assay (48 h); resistant to irradiation and cisplatin; standard deviation of 10%; read-out: EC50 (μM) Head and Neck CAL27RR
Protocol: as §5, §6, §1, §2

CAL33 = test: XTT cell viability assay, CAL33; assay type: cell-based; conditions: Homo sapiens, CAL-33; XTT assay (48 h); standard deviation of 10%; read-out: EC50 (μM) Head and Neck CAL33
Protocol: as §1, §2

786R = test: XTT cell viability assay, 786R (sunitinib-resistant); assay type: cell-based, human; conditions: Homo sapiens, 48 h, XTT assay (48 h); sunitinib-resistant; standard deviation of 10%; read-out: EC50 (μM) Kidney 786R
Protocol: as §3, §4, §1, §2

CAL33RR = test: XTT cell viability assay, CAL33RR; assay type: cell-based; conditions: Homo sapiens, light or radiation study; XTT assay (48 h); resistant to irradiation and cisplatin; standard deviation of 10%; read-out: EC50 (μM) Head and Neck CAL33RR
Protocol: as §1, §2

Row | Structure (SMILES) | EC50 (RCC4) | EC50 (K562; Homo sapiens, K562) | EC50 (786-O) | EC50 (A498; Homo sapiens, A498) | EC50 (MolM13; Homo sapiens, MOLM-13) | EC50 (MDA-MB-231) | EC50 (SKM1; Homo sapiens, SKM-1) | EC50 (OCI-AML2; Homo sapiens, OCI-AML2) | EC50 (MolM14; Homo sapiens, MOLM-14) | EC50 (OCI-AML3; Homo sapiens, OCI-AML-3) | other results
1 | Cc1ccc2nc(NC(=O)Nc3ccccc3Cl)sc2c1 [Compound #4, 1-(2-chlorophenyl)-3-(6-methylbenzo[d]thiazol-2-yl)urea] | > 25 µM | 25 µM | 15 µM | 15 µM | 15 µM | > 25 µM | 25 µM | > 25 µM | 10 µM | 10 µM | –
2 | O=C(Nc1ccccc1)Nc1nc2ccccc2[nH]1 [Compound #5, 1-(1H-benzo[d]imidazol-2-yl)-3-phenylurea] | 25 µM | 10 µM | 20 µM | 10 µM | 25 µM | 12 µM | 25 µM | 18 µM | 20 µM | 25 µM | –
3 | O=C(Nc1ccccc1)Nc1nc2ccccc2o1 [Compound #5-1, 1-(benzo[d]oxazol-2-yl)-3-phenylurea, reference compound] | > 25 µM | > 25 µM | > 25 µM | > 25 µM | > 25 µM | > 25 µM | > 25 µM | > 25 µM | > 25 µM | > 25 µM | –
4 | O=C(Nc1ccc(Cl)cc1)Nc1nc2ccccc2[nH]1 [Compound #6, 1-(1H-benzo[d]imidazol-2-yl)-3-(4-chlorophenyl)urea] | 20 µM | 12 µM | 20 µM | 9 µM | > 25 µM | 20 µM | > 25 µM | 20 µM | 20 µM | 22 µM | –
5 | O=C(Nc1nc2ccccc2s1)Nc1ccccc1Cl [Compound #7, 1-(benzo[d]thiazol-2-yl)-3-(2-chlorophenyl)urea] | 25 µM | > 25 µM | > 25 µM | > 25 µM | > 25 µM | > 25 µM | > 25 µM | 10 µM | > 25 µM | > 25 µM | –
6 | O=C(Nc1cccc(Cl)c1)Nc1nc2ccccc2s1 [Compound #8, 1-(benzo[d]thiazol-2-yl)-3-(3-chlorophenyl)urea] | 20 µM | 25 µM | > 25 µM | > 25 µM | > 25 µM | > 25 µM | > 25 µM | > 25 µM | > 25 µM | > 25 µM | –
7 | O=C(Nc1ccc(Cl)cc1)Nc1nc2ccccc2s1 [Compound #9, 1-(benzo[d]thiazol-2-yl)-3-(4-chlorophenyl)urea] | 20 µM | 25 µM | > 25 µM | 25 µM | > 25 µM | > 25 µM | > 25 µM | > 25 µM | > 25 µM | > 25 µM | –
8 | COc1ccc(NC(=O)Nc2nc3ccccc3s2)cc1 [Compound #10, 1-(benzo[d]thiazol-2-yl)-3-(4-methoxyphenyl)urea] | 15 µM | 25 µM | > 25 µM | > 25 µM | > 25 µM | > 25 µM | > 25 µM | > 25 µM | > 25 µM | > 25 µM | –
9 | O=C(Nc1cc(Cl)cc(Cl)c1)Nc1nc2ccc([N+](=O)[O-])cc2s1 [Compound #11, 1-(3,5-dichlorophenyl)-3-(6-nitrobenzo[d]thiazol-2-yl)urea] | 2 µM | – | 5 µM | 2.5 µM | – | – | – | – | – | – | EC50 (CAL27): 2.5 µM; EC50 (CAL27RR): 2.5 µM; EC50 (CAL33): 4 µM; EC50 (786R): 5 µM; EC50 (CAL33RR): 4 µM
10 | O=C(Nc1ccc(Br)cc1)Nc1nc2ccc([N+](=O)[O-])cc2s1 [Compound #12, 1-(4-bromophenyl)-3-(6-nitrobenzo[d]thiazol-2-yl)urea] | 7 µM | – | 5 µM | 7 µM | – | – | – | – | – | – | EC50 (CAL27): 5 µM; EC50 (CAL27RR): 2.5 µM; EC50 (CAL33): < 2.5 µM; EC50 (786R): 5 µM; EC50 (CAL33RR): 20 µM
11 | O=C(Nc1nc2ccc([N+](=O)[O-])cc2s1)Nc1ccccc1Br [Compound #13, 1-(2-bromophenyl)-3-(6-nitrobenzo[d]thiazol-2-yl)urea] | 25 µM | – | 15 µM | 20 µM | – | – | – | – | – | – | EC50 (CAL27): > 25 µM; EC50 (CAL33): 8 µM; EC50 (786R): 14 µM; EC50 (CAL33RR): > 25 µM
12 | O=C(Nc1ccc([N+](=O)[O-])cc1O)Nc1ccccc1Br [SB-225002, reference compound] | – | – | – | – | – | – | – | – | – | – | EC50 (K562): > 100 µM; EC50 (A498): 70 µM; EC50 (MolM13): > 100 µM; EC50 (SKM1): > 100 µM; EC50 (OCI-AML2): > 100 µM; EC50 (MolM14): 90 µM; EC50 (OCI-AML3; read-out: EC50 (μM) AML OCI-AML3): 90 µM
